Experimental findings from patent publication US12692236B2, “Small molecule modulators of sigma-1 and sigma-2 receptors and uses thereof” (Northwestern University, priority 2018, dated 2026) are described below.

One assay addresses sigma-1 receptor (Homo sapiens, UniProt Q99720). In words: sigma-1 receptor binding affinity (Ki). The conditions noted are these: for Ki: read-out: Ki (nM) Sigma-1.
The target in a further assay is sigma-2 receptor (Homo sapiens, UniProt Q5BJF2). In words: sigma-2 receptor binding affinity (Ki). As to conditions: for Ki: read-out: Ki (nM) Sigma-2.
sigma-2 receptor, sequence (Q5BJF2 whole entry, species assumed): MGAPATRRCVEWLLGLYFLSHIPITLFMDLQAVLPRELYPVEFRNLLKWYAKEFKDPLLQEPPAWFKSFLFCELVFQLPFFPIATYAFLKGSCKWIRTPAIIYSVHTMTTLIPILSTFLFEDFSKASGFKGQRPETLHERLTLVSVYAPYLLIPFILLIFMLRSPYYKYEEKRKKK

sigma-1 receptor, sequence (Q99720 whole entry, species assumed): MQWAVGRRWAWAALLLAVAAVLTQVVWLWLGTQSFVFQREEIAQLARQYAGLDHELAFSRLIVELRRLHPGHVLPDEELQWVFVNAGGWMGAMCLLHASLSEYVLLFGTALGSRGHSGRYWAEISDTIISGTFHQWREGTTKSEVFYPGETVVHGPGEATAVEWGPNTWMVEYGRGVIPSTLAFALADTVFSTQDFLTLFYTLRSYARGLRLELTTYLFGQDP

One may read the Ki as the dissociation constant of the complex between target and ligand, obtained from inhibition or displacement. As for `O=C(c1c2c(nn1-c1ccccc1)CCC(NCCc1ccc(C(F)(F)F)cc1)C2)N1CCCCC1` (stereo not shown) [compound 201683, (2-Phenyl-5-((4-(trifluoromethyl)phenethyl)amino)-4,5,6,7-tetrahydro-2H-indazol-3-yl)(piperidin-1-yl)methanone], the inhibitory constant (Ki) was 213 nM on sigma-1 receptor and over 10000 nM at sigma-2 receptor.
As to `O=C(c1c2c(nn1-c1ccc(F)cc1)CCC(NCc1ccc(F)cc1)C2)N1CCCCC1` (stereo not shown) [compound 201117, (5-((4-fluorobenzyl)amino)-2-(4-fluorophenyl)-4,5,6,7-tetrahydro-2H-indazol-3-yl)(piperidin-1-yl)methanone], at sigma-1 receptor, the “selectivity of sigma-1 ligand against sigma-2” value is “over 500 ×” and the Ki came to 17 nM.
`O=C(c1nn(-c2ccccc2)c2c1CC(NCCc1ccc(C(F)(F)F)cc1)CC2)N1CCCCC1` (stereo not shown) [compound 201684, (1-Phenyl-5-((4-(trifluoromethyl)phenethyl)amino)-4,5,6,7-tetrahydro-1H-indazol-3-yl)(piperidin-1-yl)methanone]: the Ki on sigma-1 receptor is 337 nM; at sigma-2 receptor it was over 10000 nM.
As for `O=C(c1nn(Cc2ccccc2)c2c1CC(NCCc1ccncc1)CC2)N1CCCCC1` (stereo not shown) [compound 201114, (1-benzyl-5-((2-(pyridin-4-yl)ethyl)amino)-4,5,6,7-tetrahydro-1H-indazol-3-yl)(piperidin-1-yl)methanone], the inhibitory constant (Ki) on sigma-1 receptor was 249 nM; on sigma-2 receptor, over 10000 nM.
Consider `CCCn1nc(C(=O)N2CCCCC2)c2c1CCC(NCCN1CCCCC1)C2` (stereo not shown) [compound 200640, Piperidin-1-yl(5-((2-(piperidin-1-yl)ethyl)amino)-1-propyl-4,5,6,7-tetrahydro-1H-indazol-3-yl)methanone], for which the inhibitory constant (Ki) at sigma-2 receptor stood at 434 nM.
Turning to `CCCn1nc(C(=O)N2CCCCC2)c2c1CCC(Nc1ccc(Oc3ccccc3)cc1)C2` (stereo not shown) [compound 200702], the Ki is over 10000 nM at sigma-1 receptor and 310 nM on sigma-2 receptor.
Consider `CCCn1nc(C(=O)N(C)C)c2c1CCC(SCc1ccc(F)cc1)C2` (stereo not shown) [compound 200624, 5-((4-fluorobenzyl)thio)-N,N-dimethyl-1-propyl-4,5,6,7-tetrahydro-1H-indazole-3-carboxamide], for which, on sigma-1 receptor, the “activity against sigma-1 (in words)” value is recorded as “completely lost” and the inhibition constant Ki is over 10000 nM. Moreover, at sigma-2 receptor, the “activity against sigma-2 (in words)” value is listed as “completely lost” and the inhibitory constant (Ki) is over 10000 nM.
For the compound `CCCn1nc(C(=O)N2CCCCC2)c2c1CCC(NCCCN1CCCC1=O)C2` (stereo not shown) [compound 54120], on sigma-2 receptor, the Ki is 673 nM.
In the case of `CCCn1nc(C(=O)N(C)C)c2c1CCC(NCc1ccc(Cl)cc1)C2` (stereo not shown) [compound 200875, 5-((4-chlorobenzyl)amino)-N,N-dimethyl-1-propyl-4,5,6,7-tetrahydro-1H-indazole-3-carboxamide], the “activity against sigma-1 (in words)” value at sigma-1 receptor was “complete loss of activity”. For the same compound, at sigma-2 receptor, the “activity against sigma-2 (in words)” value is reported as “moderate inhibition” and the inhibition constant (Ki) is 1020 nM.
Turning to `O=C(c1nn(Cc2ccccc2)c2c1CC(NCc1ccc(F)cc1)CC2)N1CCCCC1` (stereo not shown) [compound 201115, (1-benzyl-5-((4-fluorobenzyl)amino)-4,5,6,7-tetrahydro-1H-indazol-3-yl)(piperidin-1-yl)methanone], at sigma-1 receptor, the “selectivity sigma-1 versus sigma-2 (in words)” value is listed as “excellent selectivity” and the inhibition constant (Ki) worked out at 70 nM. Besides, the inhibition constant Ki on sigma-2 receptor is over 10000 nM.
For `O=C(c1nn(-c2ccccc2)c2c1CC(NCCc1ccc(F)cc1)CC2)N1CCCCC1` (stereo not shown) [compound 201667, (5-((4-Fluorophenethyl)amino)-1-phenyl-4,5,6,7-tetrahydro-1H-indazol-3-yl)(piperidin-1-yl)methanone], in that order: “equipotent inhibitor against both sigma receptors”, 131 nM and 91 nM.
In the case of `O=C(c1nn(-c2ccccc2)c2c1CC(NCc1ccccc1)CC2)N1CCCCC1` (stereo not shown) [compound 201665, (5-(Benzylamino)-1-phenyl-4,5,6,7-tetrahydro-1H-indazol-3-yl)(piperidin-1-yl)methanone], the Ki at sigma-1 receptor was determined as 710 nM; on sigma-2 receptor it was 492 nM.
Taken in the same sequence, the figures for `O=C(c1nn(-c2ccccc2)c2c1CC(NCCc1ccc3c(c1)OCO3)CC2)N1CCCCC1` (stereo not shown) [compound 201679, (5-((2-(Benzo[d][1,3]dioxol-5-yl)ethyl)amino)-1-phenyl-4,5,6,7-tetrahydro-1H-indazol-3-yl)(piperidin-1-yl)methanone] were 547 nM and 349 nM.
Regarding `CCCn1nc(C(=O)N(C)C)c2c1CCC(NCc1ccc(OC)cc1OC)C2` (stereo not shown) [compound 200874, 5-((2,4-dimethoxybenzyl)amino)-N,N-dimethyl-1-propyl-4,5,6,7-tetrahydro-1H-indazole-3-carboxamide], the Ki at sigma-2 receptor came to 839 nM.
With `CCCn1nc(C(=O)N2CCCCC2)c2c1CCC(N1CCC(N(C)C)CC1)C2` (stereo not shown) [compound 196331, (5-(4-(dimethylamino)piperidin-1-yl)-1-propyl-4,5,6,7-tetrahydro-1H-indazol-3-yl)(piperidin-1-yl)methanone], the inhibitory constant (Ki) on sigma-1 receptor and on sigma-2 receptor was over 10000 nM each time.
Take `O=C(c1nn(-c2ccccc2)c2c1CC(NCc1ccc(F)cc1)CC2)N1CCCCC1` (stereo not shown) [compound 2001685, (5-((4-Fluorobenzyl)amino)-1-phenyl-4,5,6,7-tetrahydro-1H-indazol-3-yl)(piperidin-1-yl)methanone]: the inhibitory constant (Ki) at sigma-1 receptor is 159 nM; on sigma-2 receptor, over 10000 nM. Further, the “improvement in potency against sigma-1 receptor” value at sigma-1 receptor (relative to the comparator analog named in the text) is on record as “over 4 fold”.
Turning to `O=C(c1c2c(nn1-c1ccccc1)CCC(NCc1ccccc1)C2)N1CCCCC1` (stereo not shown) [compound 201676, (5-(Benzylamino)-2-phenyl-4,5,6,7-tetrahydro-2H-indazol-3-yl)(piperidin-1-yl)methanone], the Ki at sigma-1 receptor came out at 38 nM; at sigma-2 receptor, 139 nM.
On to `CCCn1nc(C(=O)N(C)C)c2c1CCC(NCCc1ccc3c(c1)OCO3)C2` (stereo not shown) [compound 200876, 5-((2-(benzo[d][1,3]dioxol-5-yl)ethyl)amino)-N,N-dimethyl-1-propyl-4,5,6,7-tetrahydro-1H-indazole-3-carboxamide], for which the Ki on sigma-1 receptor is over 10000 nM; at sigma-2 receptor, 430 nM.
For `O=C(c1c2c(nn1-c1ccc(F)cc1)CCC(NCCc1ccncc1)C2)N1CCCCC1` (stereo not shown) [compound 201116, (2-(4-fluorophenyl)-5-((2-(pyridin-4-yl)ethyl)amino)-4,5,6,7-tetrahydro-2H-indazol-3-yl)(piperidin-1-yl)methanone], in that order: 103 nM and 251 nM.
Take `CCCn1nc(C(=O)N(C)C)c2c1CCC(NCCc1ccc(C(F)(F)F)cc1)C2` (stereo not shown) [compound 200878, N,N-dimethyl-1-propyl-5-((4-(trifluoromethyl)phenethyl)amino)-4,5,6,7-tetrahydro-1H-indazole-3-carboxamide]: the Ki on sigma-1 receptor came out at 1400 nM; on sigma-2 receptor, 595 nM.
Turning to `CCCn1nc(C(=O)N2CCCCC2)c2c1CCC(NCC1CCOCC1)C2` (stereo not shown) [compound 200642, Piperidin-1-yl(1-propyl-5-(((tetrahydro-2H-pyran-4-yl)methyl)amino)-4,5,6,7-tetrahydro-1H-indazol-3-yl)methanone], the Ki on sigma-2 receptor is 710 nM.
For the compound `CCCn1nc(C(=O)N2CCCCC2)c2c1CCC(N1CCC(c3ccncc3)CC1)C2` (stereo not shown) [compound 200639, Piperidin-1-yl(1-propyl-5-(4-(pyridin-4-yl)piperidin-1-yl)-4,5,6,7-tetrahydro-1H-indazol-3-yl)methanone], on sigma-2 receptor, the “selectivity of sigma-2 ligands against sigma-1 (in words)” value (from here on “selectivity of sigma-2 ligands”) was “excellent selectivity” and the Ki came out at 16 nM.
For `CCCn1nc(C(=O)N2CCCCC2)c2c1CCC(NCc1ccc(S(N)(=O)=O)cc1)C2` (stereo not shown) [compound 200652, 4-(((3-(Piperidine-1-carbonyl)-1-propyl-4,5,6,7-tetrahydro-1H-indazol-5-yl)amino)methyl)benzenesulfonamide], at sigma-2 receptor, the inhibition constant Ki came out at 439 nM.
The same measure, in the same setting: next, `CCCn1nc(C(=O)N2CCCCC2)c2c1CCC(NCc1ccc(N3CCCCC3)cc1)C2` (stereo not shown) [compound 200647, Piperidin-1-yl(5-((4-(piperidin-1-yl)benzyl)amino)-1-propyl-4,5,6,7-tetrahydro-1H-indazol-3-yl)methanone]: 169 nM; `CCCn1nc(C(=O)N2CCCCC2)c2c1CCC(NCCCNC)C2` (stereo not shown) [compound 200820, (5-((3-(Methylamino)propyl)amino)-1-propyl-4,5,6,7-tetrahydro-1H-indazol-3-yl)(piperidin-1-yl)methanone]: 1990 nM.
As for `CCCn1nc(C(=O)N2CCCCC2)c2c1CCC(N(C)Cc1ccc(F)cc1)C2` (stereo not shown) [compound 196339, (5-((4-fluorobenzyl)(methyl)amino)-1-propyl-4,5,6,7-tetrahydro-1H-indazol-3-yl)(piperidin-1-yl)methanone], on sigma-2 receptor, the “selectivity of sigma-2 ligands” value is given as “excellent selectivity” and the Ki amounted to 19 nM.
On to `CCCn1nc(C(=O)N2CCCCC2)c2c1CCC(NCCNC(=N)N)C2` (stereo not shown) [compound 200829, 2-(2-((3-(Piperidine-1-carbonyl)-1-propyl-4,5,6,7-tetrahydro-1H-indazol-5-yl)amino)ethyl)guanidine], for which, at sigma-2 receptor, the “activity against sigma-2 (in words)” value was “decreased activity” and the Ki stood at 2160 nM.
Take `CCCn1nc(C(=O)N2CCCCC2)c2c1CCC(N1CCN(Cc3ccc(C#N)cc3)CC1)C2` (stereo not shown) [compound 200641, 4-((4-(3-(Piperidine-1-carbonyl)-1-propyl-4,5,6,7-tetrahydro-1H-indazol-5-yl)piperazin-1-yl)methyl)benzonitrile]: at sigma-2 receptor, the Ki stood at 1100 nM.
Take `CCCn1nc(C(=O)N2CCCCC2)c2c1CCC(N1CCc3ccccc3C1)C2` (stereo not shown) [compound 196338, (5-(3,4-dihydroisoquinolin-2(1H)-yl)-1-propyl-4,5,6,7-tetrahydro-1H-indazol-3-yl)(piperidin-1-yl)methanone]: on sigma-2 receptor, the “activity against sigma-2 (in words)” value was “retained sigma-2 activity”, the “selectivity of sigma-2 ligands” value is recorded as “excellent selectivity” and the Ki was determined as 31 nM.
For the compound `CCCn1nc(C(=O)N2CCCCC2)c2c1CCC(Nc1ccc(N3CCCCC3)cc1)C2` (stereo not shown) [compound 200637, Piperidin-1-yl(5-((4-(piperidin-1-yl)phenyl)amino)-1-propyl-4,5,6,7-tetrahydro-1H-indazol-3-yl)methanone], the Ki at sigma-2 receptor was 787 nM.
